For data set [1], the target named is Bromodomain-containing protein 4 (Homo sapiens) (UniProt O60885). Put plainly: Induction of BRD4 degradation in human MDA-MB-231 cells harboring high integrin alphaVbeta3 expression at 0.11 uM incubated for 24 hrs by Western blot analysis. It counts as cell-based.
Data set [2] in a line: Solubility in distilled water measured for 30 mins by ultraviolet spectrophotometry analysis. It counts as physicochemical.
Data set [3] is described as follows: Stability of compound in PBS containing 5% serum at 50 uM measured after 72 hrs by LC-MS analysis. To be noted: read-out: Stability. It counts as physicochemical, cell-free.
A short description of data set [4]: Drug release in PBS assessed as increase in (2S)-1-((R)-2-(tert-butyl)-17-((S)-4-(4-chlorophenyl)-2,3,9-trimethyl-6H-thieno[3,2-f][1,2,4]triazolo[4,3-a][1,4]diazepin-6-yl)-4,16-dioxo-6,9,12-trioxa-3,15-diazaheptadecanoyl)-4-hydroxy-N-((S)-1-(4-(4-methylthiazol-5-yl)phenyl)ethyl)pyrrolidine-2-carboxamide concentration at 50 uM in presence of GSH by LC-MS analysis. Type of data set: ADME. To be noted: buffer, TDE = time-dependent effect.

Data set [5] has as its target Bromodomain-containing protein 4 (Homo sapiens) (UniProt O60885). Put plainly: Induction of BRD4 degradation in human MCF7 cells harboring low integrin alphaVbeta3 expression at 0.01 to 1 uM incubated for 24 hrs by Western blot analysis. It counts as cell-based. The following applies: dose 0.01-1 µM.
The target is the same in data set [6]. Put plainly: Induction of BRD4 degradation in human L02 cells lacking integrin alphaVbeta3 expression at 0.01 to 1 uM incubated for 24 hrs by Western blot analysis. Type of data set: cell-based. The following applies: dose 0.01-1 µM.
The target is the same in data set [7]. Put plainly: Induction of BRD4 degradation in human MDA-MB-231 cells harboring high integrin alphaVbeta3 expression at 300 nM incubated for 16 to 20 hrs by Western blot analysis. To be noted: time 16-20 hrs. It counts as cell-based. In general terms: Immunoblotting shows a protein as a band on a membrane.
The target is the same in data set [8]. Put plainly: Induction of BRD4 degradation in human MCF7 cells harboring low integrin alphaVbeta3 expression at 300 nM incubated for 12 hrs by immunofluorescence staining based confocal microscopic analysis. Type of data set: cell-based.
The target is the same in data set [9]. Put plainly: Induction of BRD4 degradation in human L02 cells lacking integrin alphaVbeta3 expression at 300 nM incubated for 12 hrs by immunofluorescence staining based confocal microscopic analysis. It counts as cell-based.
The target is the same in data set [10]. Put plainly: Induction of BRD4 degradation in human MDA-MB-231 cells harboring high integrin alphaVbeta3 expression at 1 uM incubated for 12 hrs by immunofluorescence staining based confocal microscopic analysis. Type of data set: cell-based.
The subject of data set [11] is MDA-MB-231. Put plainly: Antiproliferative activity against human MDA-MB-231 cells harboring high integrin alphaVbeta3 expression assessed as inhibition of cell growth incubated for 72 hrs by CCK-8 assay. Type of data set: functional, cell-based. The following applies: MDA-MB-231, 72 h. A general note: Formazan colour is commonly taken as a measure of viable cells.

Data set [12] deals with MCF7. Put plainly: Antiproliferative activity against human MCF7 cells harboring low integrin alphaVbeta3 expression assessed as inhibition of cell growth incubated for 72 hrs by CCK-8 assay. It counts as functional, cell-based. To be noted: MCF7, 72 h.
The subject of data set [13] is L02. Put plainly: Antiproliferative activity against human L02 cells harboring minimal integrin alphaVbeta3 expression assessed as inhibition of cell growth incubated for 72 hrs by CCK-8 assay. To be noted: L02, 72 h. Type of data set: functional, cell-based.
The target of data set [14] is Bromodomain-containing protein 4 (Homo sapiens) (UniProt O60885). Put plainly: Induction of BRD4 degradation in human MCF7 cells harboring low integrin alphaVbeta3 expression at 0.04 uM incubated for 24 hrs by Western blot analysis. Type of data set: cell-based.
The target is the same in data set [15]. Put plainly: Induction of BRD4 degradation in human MCF7 cells harboring low integrin alphaVbeta3 expression at 0.11 uM incubated for 24 hrs by Western blot analysis relative to control. Type of data set: cell-based.
Data set [16] shares this target. Put plainly: Induction of BRD4 degradation in human L02 cells lacking integrin alphaVbeta3 expression at 0.33 uM incubated for 24 hrs by Western blot analysis relative to control. Type of data set: cell-based.
Data set [17] has the same target. Put plainly: Induction of BRD4 degradation in human MDA-MB-231 cells harboring high integrin alphaVbeta3 expression at 300 nM measured at 24 hrs by Western blot analysis. Type of data set: cell-based.
Data set [18] shares this target. Put plainly: Induction of BRD4 degradation in human MCF7 cells harboring low integrin alphaVbeta3 expression at 300 nM measured at 16 hrs by Western blot analysis. Type of data set: cell-based.
The target is the same in data set [19]. Put plainly: Induction of BRD4 degradation in human MCF7 cells harboring low integrin alphaVbeta3 expression at 300 nM measured at 20 hrs by Western blot analysis relative to control. It counts as cell-based.
For data set [20] the target is unchanged. Put plainly: Induction of BRD4 degradation in human L02 cells lacking integrin alphaVbeta3 expression at 300 nM measured at 24 hrs by Western blot analysis relative to control. Type of data set: cell-based.
The subject of data set [21] is MCF7. Put plainly: Antimigratory activity against human MCF7 cells harboring low integrin alphaVbeta3 expression assessed as inhibition of cell migration at 200 nM incubated for 48 hrs by crystal violet staining based transwell assay. It counts as functional.
For data set [22], the system named is L02. Put plainly: Antimigratory activity against human L02 cells lacking integrin alphaVbeta3 expression assessed as inhibition of cell migration at 200 nM incubated for 48 hrs by crystal violet staining based transwell assay. Type of data set: functional.
For data set [23], the system named is MDA-MB-231. Put plainly: Antitumor activity against human MDA-MB-231 cells xenografted in BALB/C nude mouse assessed as tumor growth inhibition at 5 uM, iv administered every other day and measured after 21 days by vernier caliper method relative to control. The following applies: MDA-MB-231, 504 h, time 21 day, read-out: TGI. It counts as functional. On the technique in general: A xenograft is tissue or cells of one species grown in another, often human tumour cells in immunodeficient mice.

Data set [24] can be described thus: Toxicity in BALB/C mouse xenografted with human MDA-MB-231 cells assessed as weight loss at 5 uM, iv administered for 21 days and measured every 3 days. Type of data set: organism-based. The following applies: in vivo, 504 h, time 21 day.
Data set [25] is described as follows: Toxicity in BALB/C mouse xenografted with human MDA-MB-231 cells assessed as adverse reactions at 5 uM, iv administered for 21 days and measured every 3 days. Type of data set: organism-based. The following applies: in vivo, 504 h, time 21 day.
Data set [26] can be described thus: Toxicity in BALB/C mouse xenografted with human MDA-MB-231 cells assessed as effect on heart weight at 5 uM, iv administered every other day for 21 days. To be noted: in vivo, 504 h, time 21 day. It counts as organism-based.
A short description of data set [27]: Toxicity in BALB/C mouse xenografted with human MDA-MB-231 cells assessed as effect on liver weight at 5 uM, iv administered every other day for 21 days. It counts as organism-based. The following applies: in vivo, 504 h, time 21 day.
The nature of data set [28]: Toxicity in BALB/C mouse xenografted with human MDA-MB-231 cells assessed as effect on spleen weight at 5 uM, iv administered every other day for 21 days. Type of data set: organism-based. To be noted: in vivo, 504 h, time 21 day.
A short description of data set [29]: Toxicity in BALB/C mouse xenografted with human MDA-MB-231 cells assessed as effect on lung weight at 5 uM, iv administered every other day for 21 days. Type of data set: organism-based. To be noted: in vivo, 504 h, time 21 day.
Data set [30] in a line: Toxicity in BALB/C mouse xenografted with human MDA-MB-231 cells assessed as effect on kidney weight at 5 uM, iv administered every other day for 21 days. Type of data set: organism-based. The following applies: in vivo, 504 h, time 21 day.
Data set [31] is described as follows: Toxicity in BALB/C mouse xenografted with human MDA-MB-231 cells assessed as lung damage at 5 uM, iv administered every other day for 21 days and measured 37 days post treatment by H and E staining based assay. Type of data set: organism-based. To be noted: in vivo, 1392 h, time 58 day.
Data set [32] relates to MDA-MB-231. Put plainly: Antitumor activity against human MDA-MB-231 cells xenografted in BALB/C nude mouse assessed as disruption of tumor blood vessel wall at 5 uM, iv administered every other day and measured after 21 days by H and E staining based assay. It counts as functional, organism-based. The following applies: time 21.0 day.
A short description of data set [33]: Antitumor activity against patient-derived Breast cancer organoid assessed as inhibition of cell growth incubated for approximately 3 to 5 days by CCK-8 assay. Type of data set: functional, tissue-based. To be noted: Homo sapiens.

Values after ≈ are worked out from the molar mass of the structure shown. Active and inactive are the calls of the source. The calls are words filed in the database; no cut-off is given here.

A word on the solubility: it is the concentration that dissolves in the medium under given conditions. One may read the IC50 as the midpoint of a concentration-inhibition curve. As for `Cc1ncsc1-c1ccc([C@H](C)NC(=O)[C@@H]2C[C@@H](OC(=O)OCCSSCCOC(=O)CCC(=O)N[C@@H](CCCNC(=N)N)C(=O)NCC(=O)N[C@@H](CC(=O)O)C(=O)O)CN2C(=O)[C@@H](NC(=O)COCCOCCOCCNC(=O)C[C@@H]2N=C(c3ccc(Cl)cc3)c3c(sc(C)c3C)-n3c(C)nnc32)C(C)(C)C)cc1`, the result in data set [1], in data set [7] and in data set [10] was Active. The solubility at 0.5 h in [2] was above 10 mM. For the same molecule, in [3], the remaining at 72 h, 50 µM was found to be 94.6%. In data set [4], the Drug metabolism entry was “Tde”. Moreover, the result in data set [5], in [6], in data set [8] and in data set [9] was inactive. The IC50 in data set [11] was 190 nM; in [12] it was 190 nM; in [13] it was 980 nM.
Turning to `Cc1ncsc1-c1ccc([C@H](C)NC(=O)[C@@H]2C[C@@H](O)CN2C(=O)[C@@H](NC(=O)COCCOCCOCCNC(=O)C[C@@H]2N=C(c3ccc(Cl)cc3)c3c(sc(C)c3C)-n3c(C)nnc32)C(C)(C)C)cc1`, the result in data set [1], in [14], in [17], in [18], in [8] and in data set [9] was Active. Moreover, the result in data set [10], in [21] and in data set [22] was Active. Besides, the solubility at 0.5 h in data set [2] amounted to 29.5 mM (≈ 30 mg/mL). Besides, the Activity was 100% in [15]; 100% in data set [16]; 100% in [19]; 100% in [20]; “Non-Toxic” in data set [24]; “Non-Toxic” in data set [25]. Moreover, the Activity entry is recorded as “Non-Toxic” in data set [26]; “Non-Toxic” in data set [27]; “Non-Toxic” in data set [28]; “Non-Toxic” in data set [29]; “Non-Toxic” in data set [30]; “Toxic” in data set [31]. The IC50 in data set [11] came out at 90 nM; in data set [12], 30 nM; in [13], 400 nM; in data set [33], 2100 nM. Also, in data set [23], the inhibition in vivo at 5 µM was 36.3%. Besides, the outcome in [32] was inactive.
Take `Cc1ncsc1-c1ccc([C@H](C)NC(=O)[C@@H]2C[C@@H](OC(=O)CCC(=O)N[C@@H](Cc3c[nH]cn3)C(=O)N[C@@H](Cc3c[nH]cn3)C(=O)NCC(=O)N[C@@H](CCCNC(=N)N)C(=O)NCC(=O)N[C@@H](CC(=O)O)C(=O)O)CN2C(=O)[C@@H](NC(=O)COCCOCCOCCNC(=O)C[C@@H]2N=C(c3ccc(Cl)cc3)c3c(sc(C)c3C)-n3c(C)nnc32)C(C)(C)C)cc1`: the solubility at 0.5 h in data set [2] is above 10 mM. In addition, the remaining at 72 h, 50 µM in data set [3] turned out to be 10.2%.

(Values after ChEMBL document CHEMBL5375981, “Enhanced Tumor Targeting and Penetration of Proteolysis-Targeting Chimeras through iRGD Peptide Conjugation: A Strategy for Precise Protein Degradation in Breast Cancer” (J Med Chem, 2023).)
